Measurements from patent US11046680B1, “Heteroaryl-substituted triazoles as APJ receptor agonists” (priority 2016, dated 2021).
pEC50: −log10 of the molar value.

Biological target: human APJ receptor (Homo sapiens (Human), UniProt P35414)
Test: biochemical
Assay type: biochemical
Details: [35S]GTPγS binding, CHO membranes expressing human APJ receptor; read-out: Activity hAPJ SPA EC50 IP
Protocol: The human APJ receptor was cloned by polymerase chain reaction and the gene encoding the receptor was subcloned in pFLAG-CMV™-3 expression vector (Sigma, Saint Louis, Mo. USA) in-house at Amgen. A GTPγS binding assay was performed on membranes prepared from CHO cells stably expressing human APJ receptor. The optimum experimental conditions for the concentrations of GDP, MgCl2, and NaCl in the assay buffer were initially determined. […] Incubation was at RT for 90 min and the microplate was read using a ViewLux™ ultra HTS Microplate Imager (PerkinElmer, Inc.).

Chain of human APJ receptor (P35414 whole entry): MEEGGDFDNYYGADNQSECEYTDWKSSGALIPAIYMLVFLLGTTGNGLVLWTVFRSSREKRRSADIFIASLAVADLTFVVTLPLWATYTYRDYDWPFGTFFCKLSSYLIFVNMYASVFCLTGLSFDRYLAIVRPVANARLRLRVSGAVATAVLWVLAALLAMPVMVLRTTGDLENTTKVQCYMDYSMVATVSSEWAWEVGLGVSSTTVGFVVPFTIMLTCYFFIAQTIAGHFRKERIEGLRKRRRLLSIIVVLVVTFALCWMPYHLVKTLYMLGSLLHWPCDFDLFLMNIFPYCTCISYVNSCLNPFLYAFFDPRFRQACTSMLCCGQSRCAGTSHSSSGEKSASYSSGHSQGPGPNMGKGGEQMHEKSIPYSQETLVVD

Compound | pEC50
COc1cccc(OC)c1-n1c(NS(=O)(=O)C[C@H](O)c2ccc(F)cc2S(C)(=O)=O)nnc1-c1ccn(C)n1 (single isomer, unassigned) [Example 371.0, (R)-N-(4-(2,6-Dimethoxyphenyl)-5-(1-methyl-1H-pyrazol-3-yl)-4H-1,2,4-triazol-3-yl)-2-(4-fluoro-2-(methylsulfonyl)phenyl)-2-hydroxyethanesulfonamide or (S)-N-(4-(2,6-dimethoxyphenyl)-5-(1-methyl-1H-pyrazol-3-yl)-4H-1,2,4-triazol-3-yl)-2-(4-fluoro-2-(methylsulfonyl)phenyl)-2-hydroxyethanesulfonamide] | 8.66
COc1ncnc(OC)c1-n1c(NS(=O)(=O)[C@@H](C)[C@H](C)c2ncc(C)cn2)nnc1-c1nc(C)cs1 [Example 3.0, (2S,3R)-N-(4-(4,6-dimethoxypyrimidin-5-yl)-5-(4-methylthiazol-2-yl)-4H-1,2,4-triazol-3-yl)-3-(5-methylpyrimidin-2-yl)butane-2-sulfonamide] | 8.59
COc1cccc(OC)c1-n1c(NS(=O)(=O)C(C)Cc2ncc(F)cn2)nnc1-c1cc(C)no1 (stereo in doubt) [Example 57.0, (R)-N-(4-(2,6-dimethoxyphenyl)-5-(3-methylisoxazol-5-yl)-4H-1,2,4-triazol-3-yl)-1-(5-fluoropyrimidin-2-yl)propane-2-sulfonamide and (R)-N-(4-(2,6-dimethoxyphenyl)-5-(3-methylisoxazol-5-yl)-4H-1,2,4-triazol-3-yl)-1-(5-fluoropyrimidin-2-yl)propane-2-sulfonamide] | 7.38
COc1cccc(OC)c1-n1c(NS(=O)(=O)[C@@H](C)[C@@H](OC(C)C)c2cnc(C)cn2)nnc1-c1cc(C)on1 [Example 497.0, (1S,2S)-N-(4-(2,6-dimethoxyphenyl)-5-(5-methylisoxazol-3-yl)-4H-1,2,4-triazol-3-yl)-1-isopropoxy-1-(5-methylpyrazin-2-yl)propane-2-sulfonamide] | 7.82
COc1cccc(OC)c1-n1c(NS(=O)(=O)[C@@H](C)[C@@H](OC(C)C)c2ncc(Cl)cn2)nnc1-c1cnn2c1CCC2 [Example 447.0, (1S,2S)-1-(5-chloropyrimidin-2-yl)-N-(5-(5,6-dihydro-4H-pyrrolo[1,2-b]pyrazol-3-yl)-4-(2,6-dimethoxyphenyl)-4H-1,2,4-triazol-3-yl)-1-isopropoxypropane-2-sulfonamide] | 9.92
COc1cccc(OC)c1-n1c(NS(=O)(=O)CCc2ccc(Cl)cc2)nnc1-c1ncco1 [Example 92.0, 2-(4-chlorophenyl)-N-(4-(2,6-dimethoxyphenyl)-5-(oxazol-2-yl)-4H-1,2,4-triazol-3-yl)ethanesulfonamide] | 7.15
COc1cnc([C@@H](C)[C@H](C)S(=O)(=O)Nc2nnc(-c3ccn(C)n3)n2-c2c(OC)cccc2OC)cn1 [Example 287.0, (2S,3R)-N-(4-(2,6-dimethoxyphenyl)-5-(1-methyl-1H-pyrazol-3-yl)-4H-1,2,4-triazol-3-yl)-3-(5-methoxy-2-pyrazinyl)-2-butanesulfonamide] | 9.38
COc1cccc(OC)c1-n1c(NS(=O)(=O)[C@@H](C)[C@H](OC)c2ncc(Cl)cn2)nnc1-c1c[nH]c2ncccc12 [Example 419.0, (1R,2S)-1-(5-chloropyrimidin-2-yl)-N-(4-(2,6-dimethoxyphenyl)-5-(1H-pyrrolo[2,3-b]pyridin-3-yl)-4H-1,2,4-triazol-3-yl)-1-methoxypropane-2-sulfonamide] | 8.62
COc1ccccc1-n1c(NS(=O)(=O)Cc2ccc(Cl)cc2)nnc1-c1ccc(F)s1 [Example 235.0, 1-(4-chlorophenyl)-N-(5-(5-fluoro-2-thiophenyl)-4-(2-methoxyphenyl)-4H-1,2,4-triazol-3-yl)methanesulfonamide] | < 4.90
COc1cccc(OC)c1-n1c(NS(=O)(=O)[C@@H]2CCCN(c3ncc(F)cn3)C2)nnc1-c1ccn(C)n1 (single isomer, unassigned) [Example 262.0, (3R)-N-(4-(2,6-dimethoxyphenyl)-5-(1-methyl-1H-pyrazol-3-yl)-4H-1,2,4-triazol-3-yl)-1-(5-fluoro-2-pyrimidinyl)-3-piperidinesulfonamide or (3S)-N-(4-(2,6-dimethoxyphenyl)-5-(1-methyl-1H-pyrazol-3-yl)-4H-1,2,4-triazol-3-yl)-1-(5-fluoro-2-pyrimidinyl)-3-piperidinesulfonamide] | 8.32
(1R,2S)-N-(4-(2,6-dimethoxyphenyl)-5-(1-methyl-1H-pyrazol-3-yl)-4H-1,2,4-triazol-3-yl)-1-methoxy-1-(5-methoxy-2-pyrazinyl)-2-propanesulfonamide and (1S,2R)-N-(4-(2,6-dimethoxyphenyl)-5-(1-methyl-1H-pyrazol-3-yl)-4H-1,2,4-triazol-3-yl)-1-methoxy-1-(5-methoxy-2-pyrazinyl)-2-propanesulfonamide [Example 307.0] | 9.00
CO[C@H](c1ncc(Cl)cn1)[C@H](C)S(=O)(=O)Nc1nnc(-c2nn(C)c3c2CCCC3)n1C(C)C [Example 512.0, (1R,2S)-1-(5-chloropyrimidin-2-yl)-N-(4-isopropyl-5-(1-methyl-4,5,6,7-tetrahydro-1H-indazol-3-yl)-4H-1,2,4-triazol-3-yl)-1-methoxypropane-2-sulfonamide] | 6.89
COc1ccccc1-n1c(NS(=O)(=O)CCc2ccc(Cl)cc2)nnc1-c1cccs1 [Example 236.0, 2-(4-chlorophenyl)-N-(4-(2-methoxyphenyl)-5-(thiophen-2-yl)-4H-1,2,4-triazol-3-yl)ethanesulfonamide] | 6.92
COc1cccc(OC)c1-n1c(NS(=O)(=O)[C@H](C)[C@@H](C)c2ncc(Cl)cn2)nnc1-c1ccn(C)n1 [Example 443.0, (2R,3S)-3-(5-chloropyrimidin-2-yl)-N-(4-(2,6-dimethoxyphenyl)-5-(1-methyl-1H-pyrazol-3-yl)-4H-1,2,4-triazol-3-yl)butane-2-sulfonamide] | 8.19
CCO[C@H](c1ncc(F)cn1)[C@H](C)S(=O)(=O)Nc1nnc(-c2ccn(C)n2)n1-c1c(OC)cccc1OC [Example 135.0, (1R,2S)-N-(4-(2,6-Dimethoxyphenyl)-5-(1-methyl-1H-pyrazol-3-yl)-4H-1,2,4-triazol-3-yl)-1-ethoxy-1-(5-fluoro-2-pyrimidinyl)-2-propanesulfonamide] | 9.06
O=S(=O)(CCc1ccc(Cl)cc1)Nc1nnc(-c2cccs2)n1-c1ccccc1C(F)(F)F [Example 357.0, 2-(4-Chlorophenyl)-N-(5-(thiophen-2-yl)-4-(2-(trifluoromethyl)phenyl)-4H-1,2,4-triazol-3-yl)ethanesulfonamide] | < 4.90
(1R,2S)-N-(4-(2,6-dimethoxyphenyl)-5-(1H-pyrro1o[2,3-b]pyridin-3-yl)-4H-1,2,4-triazol-3-yl)-1-methoxy-1-(5-methylpyrimidin-2-yl)propane-2-sulfonamide [Example 413.0] | 7.52
Cc1cnc([C@H](OC(C)C)[C@H](C)S(=O)(=O)Nc2nnc(-c3cnn4c3CCC4)n2-c2c(F)cccc2F)cn1 [Example 484.0, (1S,2S)-N-(4-(2,6-difluorophenyl)-5-(5,6-dihydro-4H-pyrrolo[1,2-b]pyrazol-3-yl)-4H-1,2,4-triazol-3-yl)-1-isopropoxy-1-(5-methylpyrazin-2-yl)propane-2-sulfonamide] | 8.04
